Measurements reported in US20170190671A1, “BIS(ARYL)CATECHOL DERIVATIVES AS HERBICIDES” (E I DU PONT DE NEMOURS AND COMPANY, priority 2014, published 2017).

Experiments:
Experiment in all cases: Test C preemergence
Type in all cases: in vivo
[1] = tested on: Italian ryegrass (Lolium multiflorum); details: Lolium multiflorum, pre-emergence, 336 h, scale 0 to 100, read-out: Plant response rating, Ryegrass, Italian
In short: (§1)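 Seeds in loam-sand soil were treated preemergence, and plants at the 1- to 4-leaf stage (2-18 cm) in peat-based medium were sprayed postemergence, with test chemicals in a non-phytotoxic solvent containing surfactant. After 13-15 days in a greenhouse, response was rated visually against controls from 0 (no effect) to 100 (complete control).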

[2] = tested on: barnyardgrass (Echinochloa crus-galli); details: Echinochloa crus-galli, pre-emergence, read-out: Plant response rating, Barnyardgrass
In short: as §1

[3] = tested on: corn (Zea mays); details: Zea mays, pre-emergence, 336 h, scale 0 to 100
In short: as §1

[4] = tested on: galium (catchweed bedstraw, Galium aparine); details: Galium, pre-emergence, 336 h, scale 0 to 100, read-out: Plant response rating, Galium
In short: as §1

[5] = tested on: giant foxtail (Setaria faberii); details: Setaria faberi, pre-emergence, 336 h, scale 0 to 100, read-out: Plant response rating, Foxtail, Giant
In short: as §1

[6] = tested on: johnsongrass (Sorghum halepense); details: Sorghum halepense, pre-emergence, 336 h, scale 0 to 100, read-out: Plant response rating, Johnsongrass
In short: as §1

[7] = tested on: lambsquarters (Chenopodium album); details: Chenopodium album, pre-emergence, 336 h, scale 0 to 100, read-out: Plant response rating, Lambsquarters
In short: as §1

[8] = tested on: large (Lg) crabgrass (Digitaria sanguinalis); details: Digitaria sanguinalis, pre-emergence, 336 h, scale 0 to 100, read-out: Plant response rating, Crabgrass, Large
In short: as §1

[9] = tested on: morningglory (Ipomoea coccinea); details: Ipomoea, pre-emergence, 336 h, scale 0 to 100, read-out: Plant response rating, Morningglory
In short: as §1

[10] = tested on: pigweed (Amaranthus retroflexus); details: Amaranthus retroflexus, pre-emergence, 336 h, scale 0 to 100, read-out: Plant response rating, Pigweed
In short: as §1

[11] = tested on: ragweed (common ragweed, Ambrosia elatior); details: Ambrosia artemisiifolia, pre-emergence, 336 h, scale 0 to 100, read-out: Plant response rating, Ragweed
In short: as §1

[12] = tested on: soybean (Glycine max); details: Glycine max, pre-emergence, scale 0 to 100, read-out: Plant response rating, Soybean
In short: as §1

[13] = tested on: velvetleaf (Abutilon theophrasti); details: Abutilon theophrasti, pre-emergence, scale 0 to 100, read-out: Plant response rating, Velvetleaf
In short: as §1

[14] = tested on: waterhemp (common waterhemp, Amaranthus rudis); details: Amaranthus tuberculatus, pre-emergence, scale 0 to 100, read-out: Plant response rating, Waterhemp
In short: as §1

[15] = tested on: winter wheat (Triticum aestivum); details: Triticum aestivum, pre-emergence, 336 h, scale 0 to 100, read-out: Plant response rating, Wheat
In short: as §1

N#Cc1cccc(Oc2ncc(Cl)cn2)c1Oc1cnc(Cl)cn1 [Compound 32, 2-[(5-chloro-2-pyrazinyl)oxy]-3-[(5-chloro-2-pyrimidinyl)oxy]benzonitrile]
pest or weed control at 31 g/ha ([1]; 31 g ai/ha, preemergence): 50%
pest or weed control at 62 g/ha ([1]; 62 g ai/ha, preemergence): 80%
pest or weed control at 125 g/ha ([1]; 125 g ai/ha, preemergence): 90%
pest or weed control at 16 g/ha ([1]; Preemergence, 16 g ai/ha): 5%
pest or weed control at 31 g/ha ([2]; 31 g ai/ha, preemergence, scale 0 to 100): 85%
pest or weed control at 62 g/ha ([2]; 62 g ai/ha, preemergence, scale 0 to 100): 98%
pest or weed control at 125 g/ha ([2]; 125 g ai/ha, preemergence, scale 0 to 100): 100%
pest or weed control at 16 g/ha ([2]; Preemergence, 16 g ai/ha, scale 0 to 100 (0 no effect, 100 complete control)): 50%
Corn plant response rating (crop injury, 0 = no effect, 100 = complete kill) at 31 g/ha ([3]; 31 g ai/ha, preemergence): 60%
Corn plant response rating (crop injury, 0 = no effect, 100 = complete kill) at 62 g/ha ([3]; 62 g ai/ha, preemergence): 65%
Corn plant response rating (crop injury, 0 = no effect, 100 = complete kill) at 125 g/ha ([3]; 125 g ai/ha, preemergence): 65%
Corn plant response rating (crop injury, 0 = no effect, 100 = complete kill) at 16 g/ha ([3]; Preemergence, 16 g ai/ha): 5%
pest or weed control at 31 g/ha ([4]; 31 g ai/ha, preemergence): 95%
pest or weed control at 62 g/ha ([4]; 62 g ai/ha, preemergence): 95%
pest or weed control at 125 g/ha ([4]; 125 g ai/ha, preemergence): 95%
pest or weed control at 16 g/ha ([4]; Preemergence, 16 g ai/ha): 10%
pest or weed control at 31 g/ha ([5]; 31 g ai/ha, preemergence): 98%
pest or weed control at 62 g/ha ([5]; 62 g ai/ha, preemergence): 100%
pest or weed control at 125 g/ha ([5]; 125 g ai/ha, preemergence): 100%
pest or weed control at 16 g/ha ([5]; Preemergence, 16 g ai/ha): 85%
pest or weed control at 31 g/ha ([6]; 31 g ai/ha, preemergence): 85%
pest or weed control at 62 g/ha ([6]; 62 g ai/ha, preemergence): 100%
pest or weed control at 125 g/ha ([6]; 125 g ai/ha, preemergence): 100%
pest or weed control at 16 g/ha ([6]; Preemergence, 16 g ai/ha): 40%
pest or weed control at 31 g/ha ([7]; 31 g ai/ha, preemergence): 90%
pest or weed control at 62 g/ha ([7]; 62 g ai/ha, preemergence): 90%
pest or weed control at 125 g/ha ([7]; 125 g ai/ha, preemergence): 100%
pest or weed control at 16 g/ha ([7]; Preemergence, 16 g ai/ha): 60%
pest or weed control at 31 g/ha ([8]; 31 g ai/ha, preemergence): 98%
pest or weed control at 62 g/ha ([8]; 62 g ai/ha, preemergence): 100%
pest or weed control at 125 g/ha ([8]; 125 g ai/ha, preemergence): 100%
pest or weed control at 16 g/ha ([8]; Preemergence, 16 g ai/ha): 98%
pest or weed control at 31 g/ha ([9]; 31 g ai/ha, preemergence): 10%
pest or weed control at 62 g/ha ([9]; 62 g ai/ha, preemergence): 40%
pest or weed control at 125 g/ha ([9]; 125 g ai/ha, preemergence): 90%
pest or weed control at 16 g/ha ([9]; Preemergence, 16 g ai/ha): 20%
pest or weed control at 31 g/ha ([10]; 31 g ai/ha, preemergence): 100%
pest or weed control at 62 g/ha ([10]; 62 g ai/ha, preemergence): 100%
pest or weed control at 125 g/ha ([10]; 125 g ai/ha, preemergence): 100%
pest or weed control at 16 g/ha ([10]; Preemergence, 16 g ai/ha): 100%
pest or weed control at 31 g/ha ([11]; 31 g ai/ha, preemergence): 20%
pest or weed control at 62 g/ha ([11]; 62 g ai/ha, preemergence): 10%
pest or weed control at 125 g/ha ([11]; 125 g ai/ha, preemergence): 50%
pest or weed control at 16 g/ha ([11]; Preemergence, 16 g ai/ha): 10%
plant injury at 31 g/ha ([12]; 31 g ai/ha, preemergence): 45%
plant injury at 62 g/ha ([12]; 62 g ai/ha, preemergence): 45%
plant injury at 125 g/ha ([12]; 125 g ai/ha, preemergence): 90%
plant injury at 16 g/ha ([12]; Preemergence, 16 g ai/ha): 55%
pest or weed control at 31 g/ha ([13]; 31 g ai/ha, preemergence): 40%
pest or weed control at 62 g/ha ([13]; 62 g ai/ha, preemergence): 75%
pest or weed control at 125 g/ha ([13]; 125 g ai/ha, preemergence): 85%
pest or weed control at 16 g/ha ([13]; Preemergence, 16 g ai/ha): 5%
pest or weed control at 31 g/ha ([14]; 31 g ai/ha, preemergence): 100%
pest or weed control at 62 g/ha ([14]; 62 g ai/ha, preemergence): 100%
pest or weed control at 125 g/ha ([14]; 125 g ai/ha, preemergence): 100%
pest or weed control at 16 g/ha ([14]; Preemergence, 16 g ai/ha): 100%
plant injury at 31 g/ha ([15]; 31 g ai/ha, preemergence): 0%
plant injury at 62 g/ha ([15]; 62 g ai/ha, preemergence): 0%
plant injury at 125 g/ha ([15]; 125 g ai/ha, preemergence): 5%
plant injury at 16 g/ha ([15]; Preemergence, 16 g ai/ha): 0%
